From patent publication US11312724B2 (ASCENTAGE PHARMA (SUZHOU) CO., LTD., priority 2021, dated 2022)

How the values were obtained:
MIA PaCa-2 cell = assay: Cell proliferation assay (Celltiter-Glo), MIA PaCa-2; type: cell-based; conditions: Homo sapiens, MIA PaCa-2, 72 h, 3 days
Method: (§1) Cell Proliferation Assay:
(§2) NCI-H358 cell and MIA PaCa-2 cell was cultured in RPMI-1640 supplemented with 10% FBS in humidified incubator at 37° C., 5% CO2. To asses the effect of Compounds of the Disclosure on cell proliferation, exponentially growing cells (5000 cells/well) were plated onto 96-well plates. After cell seeding, a representative Compounds of the Disclosure were added to the cell media (in concentrations ranging from 0 to 10 μM, 3/dilution series). After 3 days, 30 μL Celltiter-Glo reagent was added, and the luminescent signal was determined according to supplier's instruction. The dose response curves and IC50 values were generated using Prism.

NCI-H358 cell = assay: Cell proliferation assay (Celltiter-Glo), NCI-H358; type: cell-based; conditions: Homo sapiens, NCI-H358, 72 h, 3 days
Method: as §1, §2

SMILES | IC50 (MIA PaCa-2 cell) [nM] | IC50 (NCI-H358 cell) [nM]
C=CC(=O)N1CCN(c2nc(OC[C@@H]3CCCN3C)nc3c2CCC2(CCCc4ccc(F)cc42)C3)C[C@@H]1CC#N (stereo partly drawn) [Cpd. No. 11, 2-((2S)-1-acryloyl-4-(7-fluoro-2′-(((S)-1-methylpyrrolidin-2-yl)methoxy)-3,4,5′,8′-tetrahydro-2H,6′H-spiro[naphthalene-1,7′-quinazolin]-4′-yl)piperazin-2-yl)acetonitrile] | 110 | 200
C=CC(=O)N1CCN(c2nc(OC[C@@H]3CCCN3C)nc3c2CCC2(CCc4ccc(C)cc42)C3)C[C@@H]1CC#N (stereo partly drawn) [Cpd. No. 12, 2-((2S)-1-acryloyl-4-(6-methyl-2′-(((S)-1-methylpyrrolidin-2-yl)methoxy)-2,3,5′,8′-tetrahydro-6′H-spiro[indene-1,7′-quinazolin]-4′-yl)piperazin-2-yl)acetonitrile] | 55 | 65
C=C(F)C(=O)N1CCN(c2nc(OC[C@@H]3CCCN3C)nc3c2CCC2(CCCc4ccccc42)C3)C[C@@H]1CC#N (stereo partly drawn) [Cpd. No. 13, 2-((2S)-1-(2-fluoroacryloyl)-4-(2′-(((S)-1-methylpyrrolidin-2-yl)methoxy)-3,4,5′,8′-tetrahydro-2H,6′H-spiro[naphthalene-1,7′-quinazolin]-4′-yl)piperazin-2-yl)acetonitrile] | 220 | 290
C/C=C/C(=O)N1CCN(c2nc(OC[C@@H]3CCCN3C)nc3c2CCC2(CCCc4ccccc42)C3)C[C@@H]1CC#N (stereo partly drawn) [Cpd. No. 14, 2-((2S)-1-((E)-but-2-enoyl)-4-(2′-(((S)-1-methylpyrrolidin-2-yl)methoxy)-3,4,5′,8′-tetrahydro-2H,6′H-spiro[naphthalene-1,7′-quinazolin]-4′-yl)piperazin-2-yl)acetonitrile] | 1670 | 1670
CN(C)C/C=C/C(=O)N1CCN(c2nc(OC[C@@H]3CCCN3C)nc3c2CCC2(CCCc4ccccc42)C3)C[C@@H]1CC#N (stereo partly drawn) [Cpd. No. 15, 2-((2S)-1-((E)-4-(dimethylamino)but-2-enoyl)-4-(2′-(((S)-1-methylpyrrolidin-2-yl)methoxy)-3,4,5′,8′-tetrahydro-2H,6′H-spiro[naphthalene-1,7′-quinazolin]-4′-yl)piperazin-2-yl)acetonitrile] | 290 | 510
C=CS(=O)(=O)N1CCN(c2nc(OC[C@@H]3CCCN3C)nc3c2CCC2(CCCc4ccccc42)C3)C[C@@H]1CC#N (stereo partly drawn) [Cpd. No. 16, 2-((2S)-4-(2′-(((S)-1-methylpyrrolidin-2-yl)methoxy)-3,4,5′,8′-tetrahydro-2H,6′H-spiro[naphthalene-1,7′-quinazolin]-4′-yl)-1-(vinylsulfonyl)piperazin-2-yl)acetonitrile] | 2960 | 1900
C=CC(=O)N1CCN(c2nc(OCCCN(C)C)nc3c2CCC2(CCCc4ccccc42)C3)C[C@@H]1CC#N (stereo partly drawn) [Cpd. No. 17, 2-((2S)-1-acryloyl-4-(2′-(3-(dimethylamino)propoxy)-3,4,5′,8′-tetrahydro-2H,6′H-spiro[naphthalene-1,7′-quinazolin]-4′-yl)piperazin-2-yl)acetonitrile] | 54 | 100
C=CC(=O)N1CCN(c2nc(OC[C@@H]3CCCCN3C)nc3c2CCC2(CCCc4ccccc42)C3)C[C@@H]1CC#N (stereo partly drawn) [Cpd. No. 18, 2-((2S)-1-acryloyl-4-(2′-(((S)-1-methylpiperidin-2-yl)methoxy)-3,4,5′,8′-tetrahydro-2H,6′H-spiro[naphthalene-1,7′-quinazolin]-4′-yl)piperazin-2-yl)acetonitrile] | 110 | 160
C=CC(=O)N1CCN(c2nc(OCCCN3CCOCC3)nc3c2CCC2(CCCc4ccccc42)C3)C[C@@H]1CC#N (stereo partly drawn) [Cpd. No. 19, 2-((2S)-1-acryloyl-4-(2′-(3-morpholinopropoxy)-3,4,5′,8′-tetrahydro-2H,6′H-spiro[naphthalene-1,7′-quinazolin]-4′-yl)piperazin-2-yl)acetonitrile] | 110 | 130
C=CC(=O)N1CCN(c2nc(OC[C@@H]3CN(C)CCO3)nc3c2CCC2(CCCc4ccccc42)C3)C[C@@H]1CC#N (stereo partly drawn) [Cpd. No. 20, 2-((2S)-1-acryloyl-4-(2′-(((S)-4-methylmorpholin-2-yl)methoxy)-3,4,5′,8′-tetrahydro-2H,6′H-spiro[naphthalene-1,7′-quinazolin]-4′-yl)piperazin-2-yl)acetonitrile] | 46 | 72
C=CC(=O)N1CCN(c2nc(OC[C@@H]3CCCN3C)nc3c2CCC2(CCOc4ccccc42)C3)C[C@@H]1CC#N (stereo partly drawn) [Cpd. No. 21, 2-((2S)-1-acryloyl-4-(2′-(((S)-1-methylpyrrolidin-2-yl)methoxy)-5′,8′-dihydro-6′H-spiro[chromane-4,7′-quinazolin]-4′-yl)piperazin-2-yl)acetonitrile] | 440 | 470
C=CC(=O)N1CCN(c2nc(OC[C@@H]3CCCN3C)nc3c2CCC2(CCOc4c(Cl)cccc42)C3)C[C@@H]1CC#N (stereo partly drawn) [Cpd. No. 22, 2-((2S)-1-acryloyl-4-(8-chloro-2′-(((S)-1-methylpyrrolidin-2-yl)methoxy)-5′,8′-dihydro-6′H-spiro[chromane-4,7′-quinazolin]-4′-yl)piperazin-2-yl)acetonitrile] | 490 | 940
C=CC(=O)N1CCN(c2nc(OC[C@@H]3CCCN3C)nc3c2CCC2(CCOc4c(Cl)cc(Cl)cc42)C3)C[C@@H]1CC#N (stereo partly drawn) [Cpd. No. 23, 2-((2S)-1-acryloyl-4-(6,8-dichloro-2′-(((S)-1-methylpyrrolidin-2-yl)methoxy)-5′,8′-dihydro-6′H-spiro[chromane-4,7′-quinazolin]-4′-yl)piperazin-2-yl)acetonitrile] | 740 | 1240
C=CC(=O)N1CCN(c2nc(OC[C@@H]3CCCN3C)nc3c2CCC2(COCc4ccccc42)C3)C[C@@H]1CC#N (stereo partly drawn) [Cpd. No. 24, 2-((2S)-1-acryloyl-4-(2′-(((S)-1-methylpyrrolidin-2-yl)methoxy)-5′,8′-dihydro-6′H-spiro[isochromane-4,7′-quinazolin]-4′-yl)piperazin-2-yl)acetonitrile] | 6 | 11
C=CC(=O)N1CCN(c2nc(OC[C@@H]3CCCN3C)nc3c2CCC2(C3)CC(C)Oc3ccccc32)C[C@@H]1CC#N (stereo partly drawn) [Cpd. No. 25, 2-((2S)-1-acryloyl-4-(2-methyl-2′-(((S)-1-methylpyrrolidin-2-yl)methoxy)-5′,8′-dihydro-6′H-spiro[chromane-4,7′-quinazolin]-4′-yl)piperazin-2-yl)acetonitrile] | 1280 | 1840
C=CC(=O)N1CCN(c2nc(OC[C@@H]3CCCN3C)nc3c2CCC2(COCc4cccc(F)c42)C3)C[C@@H]1CC#N (stereo partly drawn) [Cpd. No. 27, 2-((2S)-1-acryloyl-4-(5-fluoro-2′-(((S)-1-methylpyrrolidin-2-yl)methoxy)-5′,8′-dihydro-6′H-spiro[isochromane-4,7′-quinazolin]-4′-yl)piperazin-2-yl)acetonitrile] | 19 | 55
C=CC(=O)N1C2CCC1CN(c1nc(OC[C@@H]3CCCN3C)nc3c1CCC1(COCc4cccc(F)c41)C3)C2 (stereo partly drawn) [Cpd. No. 29, 1-(3-(5-fluoro-2′-(((S)-1-methylpyrrolidin-2-yl)methoxy)-5′,8′-dihydro-6′H-spiro[isochromane-4,7′-quinazolin]-4′-yl)-3,8-diazabicyclo[3.2.1]octan-8-yl)prop-2-en-1-one] | > 10000 | 8100
